Measurements taken from patent US10125138B2, “Triazolotriazinone derivatives having activity a s herbicides” (Syngenta Participations AG, priority 2015, dated 2018).

How the values were obtained:
Assay type in all cases: in vivo
Conditions in all cases: 1000 g/h, evaluated after 13 days, five point scale
[1] = tested on: Lolium perenne (LOLPE); test: Pre-emergence glasshouse herbicide test, Lolium perenne
Description: (§1) Seeds of a variety of test species are sown in standard soil in pots (Lolium perenne (LOLPE), Solanum nigrum (SOLNI), Amaranthus retoflexus (AMARE), Setaria faberi (SETFA), Echinochloa crus-galli (ECHCG), Ipomoea hederacea (IPOHE)). After cultivation for one day (pre-emergence) or after 8 days cultivation (post-emergence) under controlled conditions in a glasshouse (at 24/16° C., day/night; 14 hours light; 65% humidity), the plants are sprayed with an aqueous spray solution derived from the formulation of the technical active ingredient in acetone/water (50:50) solution containing 0.5% Tween 20 (polyoxyethelyene sorbitan monolaurate, CAS RN 9005-64-5). […] The test plants are then grown in a glasshouse under controlled conditions in a glasshouse (at 24/16° C., day/night; 14 hours light; 65% humidity) and watered twice daily. After 13 days for pre and post-emergence, the test is evaluated for the percentage damage caused to the plant. The biological activities are shown in the following table on a five point scale (5=80-100%; 4=60-79%; 3=40-59%; 2=20-39%; 1=0-19%).

[2] = tested on: Solanum nigrum (SOLNI); test: Pre-emergence glasshouse herbicide test, Solanum nigrum
Description: (§2) Seeds of a variety of test species are sown in standard soil in pots (Lolium perenne (LOLPE), Solanum nigrum (SOLNI), Amaranthus retoflexus (AMARE), Setaria faberi (SETFA), Echinochloa crus-galli (ECHCG), Ipomoea hederacea (IPOHE)). After cultivation for one day (pre-emergence) or after 8 days cultivation (post-emergence) under controlled conditions in a glasshouse (at 24/16° C., day/night; 14 hours light; 65% humidity), the plants are sprayed with an aqueous spray solution derived from the formulation of the technical active ingredient in acetone/water (50:50) solution containing 0.5% Tween 20 (polyoxyethelyene sorbitan monolaurate, CAS RN 9005-64-5). Compounds are applied at 1000 g/h. The test plants are then grown in a glasshouse under controlled conditions in a glasshouse (at 24/16° C., day/night; 14 hours light; 65% humidity) and watered twice daily. After 13 days for pre and post-emergence, the test is evaluated for the percentage damage caused to the plant. The biological activities are shown in the following table on a five point scale (5=80-100%; 4=60-79%; 3=40-59%; 2=20-39%; 1=0-19%).

[3] = tested on: Amaranthus retoflexus (AMARE); test: Pre-emergence glasshouse herbicide test, Amaranthus retoflexus
Description: as §1

[4] = tested on: Setaria faberi (SETFA); test: Post-emergence glasshouse herbicide test, Setaria faberi
Description: as §1

[5] = tested on: Solanum nigrum (SOLNI); test: Post-emergence glasshouse herbicide test, Solanum nigrum
Description: as §2

[6] = tested on: Setaria faberi (SETFA); test: Pre-emergence glasshouse herbicide test, Setaria faberi
Description: as §1

[7] = tested on: Lolium perenne (LOLPE); test: Post-emergence glasshouse herbicide test, Lolium perenne
Description: as §1

[8] = tested on: Ipomoea hederacea (IPOHE); test: Pre-emergence glasshouse herbicide test, Ipomoea hederacea
Description: as §1

[9] = tested on: Echinochloa crus-galli (ECHCG); test: Pre-emergence glasshouse herbicide test, Echinochloa crus-galli
Description: as §1

[10] = tested on: Ipomoea hederacea (IPOHE); test: Post-emergence glasshouse herbicide test, Ipomoea hederacea
Description: as §1

[11] = tested on: Echinochloa crus-galli (ECHCG); test: Post-emergence glasshouse herbicide test, Echinochloa crus-galli
Description: as §1

[12] = tested on: Amaranthus retoflexus (AMARE); test: Post-emergence glasshouse herbicide test, Amaranthus retoflexus
Description: as §1

SMILES	percentage damage caused to the plant, PRE Application LOLPE [1]	percentage damage caused to the plant, PRE Application SOLNI [2]	percentage damage caused to the plant, PRE Application AMARE [3]	percentage damage caused to the plant, POST Application SETFA [4]	percentage damage caused to the plant, POST Application SOLNI [5]	percentage damage caused to the plant, PRE Application SETFA [6]	percentage damage caused to the plant, POST Application LOLPE [7]	percentage damage caused to the plant, PRE Application IPOHE [8]	percentage damage caused to the plant, PRE Application ECHCG [9]	percentage damage caused to the plant, POST Application IPOHE [10]	percentage damage caused to the plant, POST Application ECHCG [11]	percentage damage caused to the plant, POST Application AMARE [12]
CCCn1nnnc1NC(=O)c1nn2cnn(-c3ccc(F)cc3)c2nc1=O [Compound 1.038]	4 (4=60-79%)	5 (5=80-100%)	5 (5=80-100%)	5 (5=80-100%)	5 (5=80-100%)	5 (5=80-100%)	5 (5=80-100%)	5 (5=80-100%)	5 (5=80-100%)	5 (5=80-100%)	5 (5=80-100%)	5 (5=80-100%)
O=C(c1nn2cnn(-c3ccc(C(F)(F)F)cc3)c2nc1=O)C1C(=O)C2CCC(C2)C1=O (centres unmarked) [Compound 5.008]	–	–	5 (5=80-100%)	5 (5=80-100%)	–	5 (5=80-100%)	–	5 (5=80-100%)	5 (5=80-100%)	5 (5=80-100%)	5 (5=80-100%)	5 (5=80-100%)
O=C(Nc1nnnn1-c1ccccc1)c1nn2cnn(-c3ccccc3)c2nc1=O [Compound 1.027]	1 (1=0-19%)	5 (5=80-100%)	5 (5=80-100%)	2 (2=20-39%)	5 (5=80-100%)	2 (2=20-39%)	2 (2=20-39%)	4 (4=60-79%)	1 (1=0-19%)	3 (3=40-59%)	1 (1=0-19%)	4 (4=60-79%)
Cn1ncnc1NC(=O)c1nn2cnn(-c3ccc(F)cc3)c2nc1=O [Compound 2.001]	3 (3=40-59%)	5 (5=80-100%)	5 (5=80-100%)	5 (5=80-100%)	5 (5=80-100%)	5 (5=80-100%)	4 (4=60-79%)	4 (4=60-79%)	5 (5=80-100%)	5 (5=80-100%)	4 (4=60-79%)	5 (5=80-100%)
CCn1nnnc1NC(=O)c1nn2cnn(-c3cccc(Cl)c3)c2nc1=O [Compound 1.033]	5 (5=80-100%)	5 (5=80-100%)	5 (5=80-100%)	5 (5=80-100%)	5 (5=80-100%)	4 (4=60-79%)	4 (4=60-79%)	2 (2=20-39%)	5 (5=80-100%)	5 (5=80-100%)	5 (5=80-100%)	5 (5=80-100%)
